Measurements taken from PubChem BioAssay AID2060497 (Molecular Pharmacology Branch, DTP, NCI, 2025).

Tested on: 317291-083-R-J1-PDC complex spheroids, viability
Assay: Anticancer human tumor 317291-083-R-J1-PDC patient-derived soft tissue sarcoma cell line growth inhibition [GQUAD]
Conditions: for IC50: curve of first compound; for viability, T/C: stronger effect = lower value; active means viability on the fitted dose curve at most 10% of control; inactive means the rest
Method in brief: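 Multi-cell-type spheroids of tumor cells with HUVEC and mesenchymal stem cells, treated with drug combinations. Concentrations descend in half-log steps from near clinical Cmax, or from 10 microM where Cmax is unknown; viability read-out.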

[1] = second compound 0.0316 µM, first compound 0.0316 µM
[2] = second compound 0.0316 µM, first compound 0.1 µM
[3] = second compound 0.0316 µM, first compound 0.316 µM
[4] = second compound 0.0316 µM, first compound 1 µM
[5] = second compound 0.0316 µM, first compound 3.16 µM
[6] = second compound 0.0316 µM, first compound 10 µM
[7] = second compound 0.1 µM, first compound 0.0316 µM
[8] = second compound 0.1 µM, first compound 0.1 µM
[9] = second compound 0.1 µM, first compound 0.316 µM
[10] = second compound 0.1 µM, first compound 1 µM
[11] = second compound 0.1 µM, first compound 3.16 µM
[12] = second compound 0.1 µM, first compound 10 µM
[13] = second compound 0.316 µM, first compound 0.0316 µM
[14] = second compound 0.316 µM, first compound 0.1 µM
[15] = second compound 0.316 µM, first compound 0.316 µM
[16] = second compound 0.316 µM, first compound 1 µM
[17] = second compound 0.316 µM, first compound 3.16 µM
[18] = second compound 0.316 µM, first compound 10 µM
[19] = second compound 1 µM, first compound 0.0316 µM
[20] = second compound 1 µM, first compound 0.1 µM
[21] = second compound 1 µM, first compound 0.316 µM
[22] = second compound 1 µM, first compound 1 µM
[23] = second compound 1 µM, first compound 3.16 µM
[24] = second compound 1 µM, first compound 10 µM
[25] = second compound 3.16 µM, first compound 0.0316 µM
[26] = second compound 3.16 µM, first compound 0.1 µM
[27] = second compound 3.16 µM, first compound 0.316 µM
[28] = second compound 3.16 µM, first compound 1 µM
[29] = second compound 3.16 µM, first compound 3.16 µM
[30] = second compound 3.16 µM, first compound 10 µM
[31] = second compound 10 µM, first compound 0.0316 µM
[32] = second compound 10 µM, first compound 0.1 µM
[33] = second compound 10 µM, first compound 0.316 µM
[34] = second compound 10 µM, first compound 1 µM
[35] = second compound 10 µM, first compound 3.16 µM
[36] = second compound 10 µM, first compound 10 µM
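Further: spheroids exposed to compounds for one week before readout.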
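Wherever viability, T/C is given: percent viability relative to DMSO vehicle wells taken as 100%.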

CCCS(=O)(=O)Nc1ccc(F)c(C(=O)c2c[nH]c3ncc(-c4ccc(Cl)cc4)cc23)c1F + CN(C)c1ccc(Nc2c3ccc(NC(=O)CCN4CCCC4)cc3nc3cc(NC(=O)CCN4CCCC4)ccc23)cc1
active: viability, T/C [25] 5.58% | viability, T/C [26] 0.71% | viability, T/C [27] 9.21% | viability, T/C [28] 1.39% | viability, T/C [29] 4.27% | viability, T/C [30] 1.07% | viability, T/C [31] 0.47% | viability, T/C [32] 0.37% | viability, T/C [33] 0.54% | viability, T/C [34] 2.11% | viability, T/C [35] 0.46% | viability, T/C [36] 0.51%
684 nM: IC50 (second compound 0.316 µM)
inactive: viability, T/C [1] 121% | viability, T/C [2] 107% | viability, T/C [3] 108% | viability, T/C [4] 102% | viability, T/C [5] 60.4% | viability, T/C [6] 15.4% | viability, T/C [7] 106% | viability, T/C [8] 99.9% | viability, T/C [9] 82.9% | viability, T/C [10] 87.1% | viability, T/C [11] 56.9% | viability, T/C [12] 13.6% | viability, T/C [13] 86.6% | viability, T/C [14] 72.3% | viability, T/C [15] 56.3% | viability, T/C [16] 49.2% | viability, T/C [17] 30.6% | viability, T/C [18] 14.1% | viability, T/C [19] 45.6% | viability, T/C [20] 25.1% | viability, T/C [21] 38.2% | viability, T/C [22] 30.3% | viability, T/C [23] 28.7% | viability, T/C [24] 6.94%
< 31.6 nM: IC50 (second compound 1 µM) | IC50 (second compound 3.16 µM) | IC50 (second compound 10 µM)
4160 nM: IC50 (second compound 0.0316 µM)
3840 nM: IC50 (second compound 0.1 µM)

CC1COCCN1c1cc(C2(S(C)(=N)=O)CC2)nc(-c2ccnc3[nH]ccc23)n1 (centres undefined) + CN(C)c1ccc(Nc2c3ccc(NC(=O)CCN4CCCC4)cc3nc3cc(NC(=O)CCN4CCCC4)ccc23)cc1
77.3 nM: IC50 (second compound 1 µM)
1150 nM: IC50 (second compound 0.1 µM)
432 nM: IC50 (second compound 0.316 µM)
< 31.6 nM: IC50 (second compound 3.16 µM) | IC50 (second compound 10 µM)
956 nM: IC50 (second compound 0.0316 µM)
inactive: viability, T/C [1] 123% | viability, T/C [2] 111% | viability, T/C [3] 81.6% | viability, T/C [4] 49.3% | viability, T/C [5] 25.8% | viability, T/C [6] 15.9% | viability, T/C [7] 141% | viability, T/C [8] 105% | viability, T/C [9] 82.6% | viability, T/C [10] 54.6% | viability, T/C [11] 22.2% | viability, T/C [12] 17.1% | viability, T/C [13] 84.9% | viability, T/C [14] 79.9% | viability, T/C [15] 55.7% | viability, T/C [16] 32% | viability, T/C [17] 21.6% | viability, T/C [18] 16.8% | viability, T/C [19] 56.6% | viability, T/C [20] 44.1% | viability, T/C [21] 41.9% | viability, T/C [22] 18.3% | viability, T/C [23] 15.2% | viability, T/C [25] 38% | viability, T/C [26] 24.3% | viability, T/C [27] 37.5% | viability, T/C [28] 12.3% | viability, T/C [29] 8.02%
active: viability, T/C [24] 7.51% | viability, T/C [30] 7.55% | viability, T/C [31] 3.33% | viability, T/C [32] 5.73% | viability, T/C [33] 7.2% | viability, T/C [34] 6.92% | viability, T/C [35] 3.25% | viability, T/C [36] 1.68%
